Laboratory results from PubChem BioAssay AID1985 (Southern Research Specialized Biocontainment Screening …, 2009).
Where “and” joins values, the source holds several entries; their conditions need not be identical. Identical values can stand only once.

Tested on: S. Typhi PhoP-promoter GFP reporter, fluorescence, 4 h
Test: PhoP regulon inhibitor project modified counter assay, GFP fluorescence readout, dose response (AID 1985)

SMILES	IC50
O=c1cc(-c2ccccc2)nc2nc(-c3ccco3)[nH]n12	139 µM
c1ccc2oc(-c3csc(NCC4CCCO4)n3)cc2c1 (centres undefined)	142 µM
CC[n+]1c(/C=C/N(C)c2ccccc2)n(-c2ccccc2)c2ccc(-c3nc4ccccc4s3)cc21	8.97 µM
Cc1ccc(NC(=O)CSC(N)=O)cc1Cl	33.4 µM
CCCCOc1ccc(NC2=NC3(CCCCC3)N=C(N)N2)cc1	20.1 µM
O=C(Nc1ccc(Cl)cc1)c1cccs1	105 µM
C=CC1=C(C(=O)O)N2C(=O)[C@@H](NC(=O)/C(=N/OCC(=O)O)c3csc(N)n3)[C@H]2SC1	21 µM
C(=N/Nc1nccs1)/c1cccnc1	61.5 µM
Oc1c(C(Nc2ccccn2)c2cccnc2)cc(Cl)c2cccnc12 (centres undefined)	33.9 µM
CNCC[C@H](Oc1cccc2ccccc12)c1cccs1	106 µM
Cc1ccc(NC(=O)CS(=O)CC(=O)Nc2ccccc2-c2ccc(C)o2)cc1 (centres undefined)	66.8 µM
Oc1c(Br)cc(Br)cc1C=NCc1ccc(F)cc1	54.4 µM
Cc1cc([N+](=O)[O-])cc(/C=N/n2c(C)nc3ccccc3c2=O)c1O	53.6 µM
CSc1nc2cc(Oc3cccc(Cl)c3Cl)c(Cl)cc2[nH]1	57.8 µM
O=C(CSc1nc2ccccc2s1)N/N=C/c1cc([N+](=O)[O-])ccc1O	44 µM
O=[N+]([O-])/C=C/c1cc2ccccc2[nH]1	64.9 µM
O=Nc1ccc(O)c2ncccc12	24.6 µM
CN1/C(=C\C=C\C2=[N+](C)c3ccc4ccccc4c3C2(C)C)C(C)(C)c2ccccc21	3.62 µM
Nc1ncn(C2O[C@H](CO)[C@@H](O)[C@H]2O)c(=O)n1 (some centres undefined)	10.1 µM
CCOC(=O)c1c(-c2ccccc2)oc2ccc(OCC(O)CNCCN(C)C)cc12 (centres undefined)	80.2 µM
CN(C)CCCNc1cc(C(C)(C)C)nc2c(-c3ccccc3)cnn12	75.7 µM
CC(C(=O)NC1C=CS(=O)(=O)C1)N1C(=O)/C(=C/c2cccc(Cl)c2)SC1=S (centres undefined)	33.6 µM
CC1CC(=O)c2c(cc3c(-c4c(O)cc(O)c5c(O)c6c(cc45)OC(C)CC6=O)c(O)cc(O)c3c2O)O1 (centres undefined)	27 µM

SMILES	IC50
O=C(O)c1cc2c(cn1)[nH]c1ccccc12	73 µM
CN1CCN(CC(=O)N2CCn3c4c(c5cc(C6CCCCC6)ccc53)CCCC42)CC1 (centres undefined)	76.5 µM
Cc1nc(N)nc(N)c1CCCc1ccc(Cl)c(Cl)c1	43.1 µM
CCn1cc(C(=O)O)c(=O)c2cc(F)c(N3CCN(S(=O)(=O)c4ccc(NC(C)=O)cc4)CC3)cc21	86.6 µM
O=C(CCN1CCN(c2ccccc2F)CC1)c1ccc(Br)cc1	43.4 µM
CN1CCN(c2nc3cc(C(F)(F)F)ccc3n3cccc23)CC1	101 µM
CN1CCN(c2c(F)cc3c(=O)c(C(=O)O)cn4c3c2SCC4)CC1	3.16 µM and 3.49 µM
COc1ccc(Nc2c3ccccc3nc3ccccc23)cc1	53.8 µM
O=C(CSc1ccccn1)N/N=C/c1cc([N+](=O)[O-])ccc1O	35.6 µM
O=C(/C=C/c1cccs1)NC(=S)NNC(=O)c1ccccc1O	27 µM
O=c1c2ccccc2[nH]c2ccccc12	27.2 µM
O=C1CN(/N=C/c2ccc([N+](=O)[O-])o2)C(=O)N1	32.2 µM
CCn1cc(C(=O)O)c(=O)c2cc3c(cc21)OCO3	52.1 µM
OC1CNCc2cc3c(cc21)OCCO3 (centres undefined)	80.8 µM
COc1cccc(CNCCc2c[nH]c3ccccc23)c1OCc1ccccc1	150 µM
CCCCCCCCCCC[N+](C)(C)CC/C=C1/c2ccccc2Sc2ccc(Cl)cc21	31.4 µM
CCn1cc(C(=O)O)c(=O)c2cc(F)c(N3CCN(C(=S)NC(=O)c4cccc(F)c4)CC3)cc21	27.2 µM
Cc1ccccc1Nc1cc(C)c2c(O)cccc2n1	25.5 µM
O=C(N/N=C/c1cc(Cl)ccc1O)c1cccnc1	28.2 µM
COc1ccc(OCC(O)CNc2ccc(Br)cc2)cc1 (centres undefined)	3.55 µM
Clc1cccc(/C=N\Nc2nccs2)c1	58.9 µM
Clc1cc(Br)ccc1OCCCNCc1ccccc1	45.5 µM
O=C(/C=C(\O)c1ccccc1)C(=O)NNC(=O)c1ccccc1	19.7 µM

SMILES	IC50
c1ccc(Nc2nc(NCC3CCCO3)c3ccccc3n2)cc1 (centres undefined)	16.8 µM
O=C(CCc1ccccc1)NNC(=O)c1ccccn1	101 µM
O=C(O)c1cn(C2CC2)c2cc(N3CCN(S(=O)(=O)c4ccc5c(c4)OCCO5)CC3)c(F)cc2c1=O	28.2 µM
Nc1nc(Nc2cccc(F)c2)nc2ccccc12	54 µM
CCn1cc(C(=O)O)c(=O)c2cc(F)c(N3CCN(C)CC3)cc21	0.427 µM
Fc1ccc(Nc2ccnc(Nc3ccc(F)cc3)n2)cc1	39.3 µM
COc1cc(/C=N/NC(=O)c2cncc(Br)c2)cc([N+](=O)[O-])c1O	< 0.23 µM
N=c1n(CCN2CCCCC2)c2ccccc2n1CC(O)COc1ccccc1 (centres undefined)	90.2 µM
CC[C@H]1OC(=O)[C@H](C)[C@@H](O[C@H]2C[C@@](C)(OC)[C@@H](O)[C@H](C)O2)[C@H](C)[C@@H](O[C@@H]2O[C@H](C)C[C@H](N(C)C)[C@H]2O)[C@](C)(O)C[C@@H](C)[C@@H]2N[C@@H](COCCOC)O[C@H]([C@H]2C)[C@]1(C)O	45.4 µM
O=C(NC(C(=O)c1ccccc1)n1c(=O)cc[nH]c1=S)c1ccccc1 (centres undefined)	120 µM
CCOC(=O)N1CCN(CCC(=O)c2ccc(Cl)cc2)CC1	108 µM
CSc1ccc2c(c1)C(N1CCN(C)CC1)Cc1ccc(F)cc1S2 (centres undefined)	51.8 µM
O=C(Nc1cccc(N=Cc2cc(Cl)cc(Br)c2O)c1)c1ccco1	94.3 µM
CNCCCCOc1ccc(C(C)(C)C)cc1Cl	61 µM
Cc1ccc(CC(=O)Nc2ncc([N+](=O)[O-])s2)cc1	94.4 µM
Fc1ccc(Nc2nnc(C(F)(F)F)s2)cc1Cl	38 µM
CN1CCN(C2Cc3ccc(Cl)cc3Sc3ccc(F)cc32)CC1 (centres undefined)	39.6 µM
O=C(/C=C/c1ccccc1)NC(=S)NNC(=O)c1cnccn1	146 µM
Cc1ccc(C(c2cc(Cl)c3cccnc3c2O)N2CCN(C)CC2)cc1 (centres undefined)	48.2 µM
O=C(CC1NCCc2ccccc21)Nc1ccc(Oc2ccccc2)cc1 (centres undefined)	79.9 µM
CCCCCCCCCCOC(=O)Cn1c(COc2ccccc2OC)[n+](C)c2ccccc21	25.4 µM
CCCCOc1ccc(CN=C(N)N)cc1Cl	103 µM
Cc1cc(NC(=O)c2ccccc2)sc1C	84.3 µM

SMILES	IC50
CCCCCCCCCCOC(=O)Cn1c(COc2ccc(C)cc2)[n+](C)c2ccccc21	16.6 µM
O=[N+]([O-])c1cc([N+](=O)[O-])c2cccnc2c1Oc1ccccc1O	88 µM
O=C(Cc1ccc([N+](=O)[O-])cc1)N/N=C/c1ccc([N+](=O)[O-])o1	13.1 µM
CCCCn1c(NS(=O)(=O)c2ccccc2)c(S(=O)(=O)c2ccc(C)cc2)c2nc3ccccc3nc21	114 µM
COc1ccc(N2CC(C(=O)N/N=C/c3cc([N+](=O)[O-])ccc3O)CC2=O)cc1 (centres undefined)	81.2 µM
CN(C)c1ccc(Nc2nc(N)c3ccccc3n2)cc1	62.4 µM
C/C(=N\NC(=O)c1ccc(Cl)cc1)c1ccccn1	48.3 µM
CCN(CCC(=O)Nc1ccc(Br)c(C)c1)Cc1ccccc1	79.8 µM
COc1ccc(Nc2cc(C)c3c(O)cccc3n2)cc1	34.4 µM
COc1cccc(C=NCC(C)N=Cc2cccc(OC)c2O)c1O (centres undefined)	74.1 µM
Cc1ccc2c(c1)c1c(n2CC(O)CNC2CCCCC2)CCCC1 (centres undefined)	136 µM
CCCCCCCNC(=O)C1(CC2CC(c3ccc(Cl)cc3)=NO2)CCNCC1 (centres undefined)	39 µM
CC(C(=O)c1ccc(-c2ccccc2)cc1)[n+]1cccc(NC(=O)c2ccccc2)c1 (centres undefined)	36.3 µM
Cc1cc(NS(=O)(=O)c2ccc(NC(=O)Nc3cccc(Cl)c3)cc2)no1	137 µM
Cc1ccc(OCc2nnc(NC(=O)c3cccnc3)s2)cc1	13.9 µM
COc1ccc(C2NCCc3c2[nH]c2ccccc32)cc1COc1ccc(F)cc1 (centres undefined)	78.5 µM
CN1CCC(OC(=O)c2ccc(Br)cc2)CC1	58.3 µM
Oc1cccc2ccc(Nc3ccccn3)nc12	11.6 µM
CC(C)(C)CC(C)(C)c1ccc(OCCOCC[N+](C)(C)Cc2ccccc2)cc1	34.9 µM
Cc1cc(NC2CCCCC2)nc(NCc2ccccc2)n1	77.9 µM
Cc1cc(C2N=C(N)Nc3nc4ccccc4n32)c(C)n1-c1ccccc1Cl (centres undefined)	88.3 µM
NC(N)=N/N=C/c1ccc(OCc2ccc(Cl)cc2)cc1	36.3 µM
OC(c1cc(C(F)(F)F)nc2c(C(F)(F)F)cccc12)C1CCCCN1 (centres undefined)	37.6 µM

SMILES	IC50
OC(CNCC1CCCO1)Cn1c2ccc(Cl)cc2c2cc(Cl)ccc21 (centres undefined)	38.8 µM
Cc1occc1C(=O)N/N=C/C=C/c1ccccc1	41.6 µM
O=C(NNC(=S)NC(=O)c1ccccc1)c1ccc(O)cc1	71.1 µM
Nc1nc(=S)c2[nH]cnc2[nH]1	6.3 µM
CO[C@H]1C=CO[C@@]2(C)Oc3c(C)c(O)c4c(O)c(c(C=NN5CCN(C)CC5)c(O)c4c3C2=O)NC(=O)C(C)=CC=C[C@H](C)[C@H](O)[C@@H](C)[C@@H](O)[C@@H](C)[C@H](OC(C)=O)[C@@H]1C	23.8 µM
O=C(Oc1c(Cl)cc(Cl)c2cccnc12)c1cccc([N+](=O)[O-])c1	5.09 µM
CCn1cc(C(=O)O)c(=O)c2cc(F)c(N3CCN(C(=S)NC(=O)c4ccccc4F)CC3)cc21	62.8 µM
Clc1ccc(OCCCNCc2ccccc2)c(Br)c1	43.8 µM
O=C1c2ccccc2C2=Nc3ccccc3SC(c3ccccc3F)C12 (centres undefined)	21 µM
CNC[C@@H](Cc1ccccc1)NC[C@@H](CC1CCCCC1)NCCCc1ccccc1	41.8 µM
CCOc1cc(C(c2c(C)[nH][nH]c2=O)c2c(C)[nH][nH]c2=O)cc([N+](=O)[O-])c1O	75.6 µM
CN1CCc2c(sc(NC(=O)c3ccc([N+](=O)[O-])o3)c2C(N)=O)C1	11 µM
Cc1ccc2nc(NCc3ccccc3)[nH]c2c1	72.6 µM
CCCCn1c(NS(=O)(=O)c2ccccc2)c(C(=O)OCC)c2nc3ccccc3nc21	110 µM
CC1CCC(C(C)C)C(OC(=O)Cn2c(COc3ccccc3)[n+](C)c3ccccc32)C1 (centres undefined)	51.5 µM
O=C(Nc1nc(-c2ccccn2)cs1)c1ccc(Br)s1	20.1 µM
CN1CCN(C2Cc3cc(Cl)ccc3Sc3cc(F)ccc32)CC1 (centres undefined)	37.5 µM
O=C(CSc1nnc(-c2ccccc2)n1-c1ccc(Cl)cc1)NC1CCS(=O)(=O)C1 (centres undefined)	31.2 µM
O=C(Nc1cccc([N+](=O)[O-])c1)Nc1cccs1	45.6 µM
CCCCCCCSc1cc(OC)c(CCN(C)C)cc1OC	83.5 µM
C[C@H]1O[C@@H](n2cc(F)c(=O)[nH]c2=O)[C@H](O)[C@@H]1O	13.2 µM
COc1ccc(NC(=O)COC(=O)c2ccc([N+](=O)[O-])o2)cc1Cl	46.8 µM
